Assay in all cases: growth of human tumour cells (NCI), 48 h
The test system of assay [1] is HCT-15 colon.
Assay [2] deals with RXF 393 renal.
The subject of assay [3] is SF-295 CNS.
Assay [4] concerns EKVX NSCLC.
The subject of assay [5] is HOP-62 NSCLC.
In assay [6] the test system is SW-620 colon.
For assay [7], the system named is UACC-62 melanoma.
The test system of assay [8] is ACHN renal.
Assay [9] has as its system MDA-MB-231 breast.
The subject of assay [10] is SR leukemia.
Assay [11] relates to OVCAR-3 ovarian.
Assay [12] concerns UACC-257 melanoma.
Assay [13] deals with NCI-H226 lung.
Assay [14] relates to 786-0 renal.
Assay [15] relates to SNB-19 CNS.
Assay [16] relates to HOP-92 NSCLC.
The subject of assay [17] is SF-268 CNS.
Assay [18] deals with SK-MEL-5 melanoma.
In assay [19] the test system is RPMI-8226 leukemia.

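Method: 48-hour compound exposure of cells in 96-well plates, five concentrations, linear interpolation of endpoints. TGI is the concentration that stops growth completely.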

For `CCOC(=O)CC(=O)CSc1c(-c2ccccc2)c(=O)n(-c2ccccc2)c(=S)n1-c1ccccc1`, the TGI in assay [1], in assay [2], in assay [3], in assay [4], in assay [5] and in assay [6] was more than 100 µM in each case. Moreover, the TGI in assay [7], in assay [8], in assay [9], in assay [10], in assay [11] and in assay [12] was more than 100 µM in each case. For the same compound, the TGI in [13], in assay [14], in [15], in [16] and in assay [17] was more than 100 µM throughout.
Take `COC(=O)C(/C(=N/N)C(=O)Nc1cccc(O)c1)c1nc2ccccc2[nH]c1=O` (stereo not given): the TGI in [1], in assay [18], in assay [2], in [3], in [4] and in [5] was more than 100 µM each time. The TGI in assay [6], in assay [7], in assay [8], in [9], in assay [10] and in assay [11] was more than 100 µM in each case. In addition, the TGI in assay [12], in [13], in [14], in assay [15], in [16] and in assay [17] was more than 100 µM throughout.
`N=c1oc2ccc(Cl)cc2cc1C(N)=O`: the TGI was 69.2 µM in assay [1]; 47 µM in assay [18]; more than 100 µM in assay [2]; more than 100 µM in [6]; 41.3 µM in assay [7]; more than 100 µM in [8]. Besides, the TGI is 69 µM in [9]; more than 100 µM in assay [10]; 64.9 µM in assay [11]; more than 100 µM in assay [12]; 78.1 µM in assay [13]; 73 µM in assay [14]. For the same compound, the TGI in [15], in [16], in assay [17] and in assay [19] was more than 100 µM in each case.
Regarding `COC(=O)[C@@H]1COC(C(C)(C)C)N1C(=O)C(c1ccccc1)c1ccccc1` (stereo not given in full), the TGI in assay [1] is more than 100 µM; in assay [18], more than 100 µM; in [2], 38.1 µM; in [3] it was more than 100 µM; in assay [4], more than 100 µM; in [5] it was more than 100 µM. The TGI in [6] is more than 100 µM; in assay [7], more than 100 µM; in assay [8], more than 100 µM; in assay [9], 81.8 µM; in assay [10], 33.9 µM; in assay [11], more than 100 µM. In addition, the TGI in assay [12], in assay [13], in assay [14], in [15], in assay [16] and in assay [17] was more than 100 µM each time.
For `COC(=O)/C=C(\C)CC/C=C(\C)CCC(O)C(C)(C)O` (stereo not given), the TGI in assay [1] is 48 µM; in assay [18], 33.4 µM; in assay [2], 59.9 µM; in [3], 61.6 µM; in assay [4], more than 100 µM; in assay [5], 78 µM. For the same compound, the TGI is 53.5 µM in assay [6]; 77.9 µM in assay [7]; 75 µM in [8]; more than 100 µM in assay [9]; 44.6 µM in assay [10]; 65.3 µM in assay [11]. For the same compound, the TGI in [12] was more than 100 µM; in [13] it was more than 100 µM; in assay [14] it was 42.5 µM; in [15] it was more than 100 µM; in assay [16] it was more than 100 µM.
Consider `O=C(c1ccccc1)N1CCC(Nc2nccs2)O1` (stereo not given), for which the TGI in [1], in assay [18], in assay [2], in [3], in assay [4] and in assay [5] was more than 10 µM throughout. Besides, the TGI in assay [6], in [8], in [9], in assay [10], in assay [11] and in [12] was more than 10 µM throughout. The TGI in assay [13], in assay [14], in [15], in [17] and in assay [19] was more than 10 µM throughout.
Take `COc1ccc2c(c1)CCc1c-2n(CCN2CCOCC2)c2ccc(OC)cc12`: the TGI in assay [1], in assay [18], in assay [2], in assay [3], in assay [5] and in [6] was more than 100 µM throughout. Moreover, the TGI in [7] is more than 100 µM; in assay [8], more than 100 µM; in assay [9], more than 100 µM; in assay [10], 34.8 µM; in [11] it was more than 100 µM; in [12], more than 100 µM. Moreover, the TGI in assay [13], in assay [14], in assay [16], in assay [17] and in [19] was more than 100 µM throughout.
With `O=C(NCCCNCCCCNCCCNC(=O)c1cc(-c2ccccc2)nc2ccccc12)c1cc(-c2ccccc2)nc2ccccc12`, the TGI in assay [1] was 44.1 µM; in assay [18], 26.3 µM; in assay [2], 74.2 µM; in assay [3] it was 14.4 µM; in assay [4] it was 18 µM; in assay [5] it was 11.2 µM. The TGI was 13.1 µM in assay [6]; 6.77 µM in assay [7]; 42.3 µM in [8]; more than 100 µM in assay [9]; 4.95 µM in assay [10]; 15.9 µM in assay [11]. Besides, the TGI was determined as 13.3 µM in assay [12], 3 µM in assay [14] and 4.36 µM in assay [16].
